How the values were obtained:
[1] = tested on: HCT116 human colon cancer cells; assay: Matrigel invasion and migration, HCT116; format: cell-based
Protocol: The studies were conducted using Matrigel (Becton Dickinson) inserts in compatible 24-well plates. Fibroblasts were seeded and grown in the wells of the plate using DMEM. When fibroblasts reached confluence, the medium was withdrawn and replaced with 750 μl of the media designated for the treatment. The cancer cells (5×10^4) suspended in 250 μl of the medium supplemented with nutrients as specified in the design of the experiment were seeded on the insert in the well. Thus both the medium on the insert and in the well contained the same supplements. […] After incubation, the media from the wells was withdrawn. The cells on the upper surface of the inserts were gently scrubbed away with cotton swab. The cells that had penetrated the Matrigel membrane and had migrated on the lower surface of the Matrigel were stained with hemacolor stain (EM Sciences) and were visually counted under the microscope. The results were subjected to ANOVA and all the possible pairs were tested for significance at p<0.05. […]
HTCT116 (ATCC) human colon cancer cells were seeded on Matrigel insert in an improved Matrigel Invasion Chamber (BD). […] The chamber was incubated for 24 hours and the cells that had invaded the Matrigel membrane and had migrated into the lower surface of the membrane were counted.

[2] = tested on: human melanoma cell line A2058; assay: MTT cell proliferation/growth, melanoma cells
[3] = tested on: MDA-MB 231 human breast cancer cells; assay: Matrigel invasion and migration, MDA-MB-231
Protocol: The studies were conducted using Matrigel (Becton Dickinson) inserts in compatible 24-well plates. Fibroblasts were seeded and grown in the wells of the plate using DMEM. When fibroblasts reached confluence, the medium was withdrawn and replaced with 750 μl of the media designated for the treatment. The cancer cells (5×10^4) suspended in 250 μl of the medium supplemented with nutrients as specified in the design of the experiment were seeded on the insert in the well. Thus both the medium on the insert and in the well contained the same supplements. The plates with the inserts were then incubated (in air-circulating incubator for MDA-MB-231 cells and 5% CO2 incubator for colon cancer cells and melanoma cells) for 18–20 hours. After incubation, the media from the wells was withdrawn. The cells on the upper surface of the inserts were gently scrubbed away with cotton swab. The cells that had penetrated the Matrigel membrane and had migrated on the lower surface of the Matrigel were stained with hemacolor stain (EM Sciences) and were visually counted under the microscope. The results were subjected to ANOVA and all the possible pairs were tested for significance at p<0.05.
The media in different studies were supplemented with ascorbic acid, proline, lysine and EGCG at concentrations as indicated.
MDA-MB 231 (ATCC) breast cancer cells were seeded on Matrigel insert in an improved Matrigel Invasion Chamber (BD). Conditioned media from normal human dermal fibroblast (Clonetics) supplemented with various agents (as indicated on FIG. 1) were added to the well. The chamber was incubated for 24 hours and the cells that had invaded the Matrigel membrane and had migrated into the lower surface of the membrane were counted.

[4] = tested on: human breast cancer cells MDA-MB-231; assay: MTT cell proliferation/growth, breast cancer MDA-MB-231
[5] = tested on: A2058 human melanoma cells; assay: Matrigel invasion and migration, melanoma cells; format: cell-based; details: conditioned media from NHDF, 24 hours
Protocol: The studies were conducted using Matrigel (Becton Dickinson) inserts in compatible 24-well plates. Fibroblasts were seeded and grown in the wells of the plate using DMEM. When fibroblasts reached confluence, the medium was withdrawn and replaced with 750 μl of the media designated for the treatment. The cancer cells (5×10^4) suspended in 250 μl of the medium supplemented with nutrients as specified in the design of the experiment were seeded on the insert in the well. Thus both the medium on the insert and in the well contained the same supplements. The plates with the inserts were then incubated (in air-circulating incubator for MDA-MB-231 cells and 5% CO2 incubator for colon cancer cells and melanoma cells) for 18–20 hours. After incubation, the media from the wells was withdrawn. The cells on the upper surface of the inserts were gently scrubbed away with cotton swab. The cells that had penetrated the Matrigel membrane and had migrated on the lower surface of the Matrigel were stained with hemacolor stain (EM Sciences) and were visually counted under the microscope. […]
A2058 (ATCC) human melanoma cells were seeded on Matrigel insert in improved Matrigel Invasion Chamber (BD). […] The chamber was incubated for 24 hours and the cells that had invaded the Matrigel membrane and had migrated into the lower surface of the membrane were counted.

MMP-2 and MMP-9 = assay: Gelatinase zymography, melanoma cells; format: cell-based, human; details: overall / dose dependence
Protocol: Gelatinase zymography was performed in 10% Novex pre-cast polyacrylamide gel (Invitrogen) in the presence of 0.1% gelatin. Culture media (20 μl) was loaded and SDS-PAGE was performed with tris-glysine SDS buffer. After electrophoresis, the gels were washed with 5% Triton X-100 for 30 minutes and stained. Protein standards were run concurrently and approximate molecular weights were determined.
The effect of EGCG on melanoma cells with basal and ascorbic acid, proline, and lysine supplementation on expression of MMPs is depicted in FIG. 9 by gelatinase zymography. […] The intensity of bands for basal and ascorbic acid, lysine and proline combination were the same.

Structure (SMILES)	Matrigel invasion of colon cancer cells (reduced to) ([1]; EGCG 20 μg/ml) [%]	Matrigel invasion and migration (FIG. 2) ([1]; conditioned media from NHDF, 24 hours)	cell proliferation (cell number, Basal = 100) ([2]; EGCG 50 μg/ml) [%]	cell proliferation (cell number, Basal = 100) ([2]; EGCG 10 and 20 μg/ml)	Matrigel invasion and migration (FIG. 1) ([3]; MDA-MB 231, conditioned media from NHDF, 24 hours)	Matrigel invasion (number of invading cells) compared to non-supplemented media ([3]; MDA-MB-231, EGCG 20 μg/ml) [%]	Matrigel invasion ([3]; MDA-MB-231, EGCG 50 μg/ml and 100 μg/ml)	cell number compared to control ([4]; EGCG 50 μg/ml) [%]	cell number compared to control ([4]; EGCG 100 μg/ml) [%]	cell number compared to control ([4]; EGCG 200 μg/ml) [%]	cell number compared to unsupplemented controls ([4]; EGCG up to 20 μg/ml)	Matrigel invasion and migration (FIG. 3) [5]	expression of MMP-2 and MMP-9 (zymography bands) (MMP-2 and MMP-9)	invasion reduced by ([3]; MDA-MB-231, another series, 100 μM ascorbic acid, 140 μM proline) [%]
O=C(O[C@@H]1Cc2c(O)cc(O)cc2O[C@@H]1c1cc(O)c(O)c(O)c1)c1cc(O)c(O)c(O)c1 [EGCG, (−)-epigallocatechin-3-gallate]	44.9±3.3	inhibitory effect	30	Neither lysine, proline, and ascorbic acid nor EGCG at 10 and 20 μg/ml had any significant effect	inhibitory effect	69.5±27.4	complete inhibition	66.1±5.3	33.6±2	29.6±0.8	did not have any significant inhibitory effect	inhibitory effect	inhibitory effect on their expression in a dose dependent fashion	
O=C1O[C@H]([C@@H](O)CO)C(O)=C1O [ascorbic acid]														36

— patent publication US7041699B2, “Nutrient pharmaceutical formulation comprising polyphenols and use in treatment of cancer” (Matthias Rath, priority 2002, dated 2006)
